Laboratory results: patent US20060217321A1, “Compositions to improve tic disorders” (priority 2005, published 2006)
Residues, ends and D or L forms follow the SMILES beside them.

Tests used:
tic disorders [1] = assay: Test Case 1: a case with improved tic disorder; format: in vivo, human; conditions: for effect of earlier drug therapy on tic symptoms (history): patient history before theanine
Excerpt: <Test Case 1> A Case with Improved Tic Disorder
Patient: (Sixth grade elementary school student);
Chief complaint: shaking hands and head
History: Since being elected as temporary class representative of the fourth grade class of elementary school, the patient had blinking eyes and subsequently shook their face and shoulders; thus, they visited a nearby hospital and received diazepam. […] In the following year, around the time of moving to Osaka, the patient suffered a relapse of symptoms of shaking their face and shoulders again and thus visited the pediatric department of O hospital and received haloperidol.

Tourette's disorder = assay: Test Case 2: a case with improved Tourette's disorder; format: in vivo, human
Excerpt: <Test Case 2> A Case with Improved Tourette's Disorder
Patient: child; body weight: 43 kg
The tics were milder when they were in school or with others, and were more frequently observed in the presence of only their family. (in the third semester of the sixth grade), they visited our clinic worrying about bullying at their junior high school. […] In addition, the patient continuously moved their hands and legs and tended to be restlessly absent-mindedly hyperactive.
Psychosocial case history: The patient was always crying due to inherent sensitivity; thus, their parent felt anxious about child-rearing. They were severely afraid of strangers and timid, and often cried for fear. […] They often cut into others' conversation and was too talkative. Their parent can get along with their younger sibling casually, but is feeling awkwardness and pain with the patient due to the lack of closeness. Their parent is not nagging so much, and seems to accept the patient. Clinical course: The patient was diagnosed as having Tourette's disorder, and the disease was explained to their parents. To alleviate the symptoms, haloperidol (trade name: Serenase (trademark); Dainippon Pharmaceutical Co. Ltd.) was used.
The administration of theanine is scheduled to be continued until the end of puberty. The patient has joined their junior high school track club, and has tics, although unnoticeable. The patient has become a bit disobedient and often falls silent, but is highly motivated with study.

mice = format: in vivo; conditions: oral administration of 5 g/kg
tic disorders [2] = assay: Test Case 3: a case with improved tic disorder; format: in vivo, human; conditions: patient; 0.8 g theanyl-theanine daily for 30 days
Excerpt: <Test Case 3> A Case with Improved Tic Disorder
Patient: child; height 121 cm; body weight 20 kg
Chief complaint: repetitive guttural
They were diagnosed as having tics.
The parent disciplined the child by scolding. They were pressed with child-rearing and housework and had little free time; thus, they were always nagging due to frustration. In July 1990, the patient developed involuntary movements of shaking their shoulders up and down, and in addition, repetitive guttural. In Sep. 6, 1990, the patient first visited the clinic. The affected child was thin with abdominal palpitation and spasms of the musculus rectus abdominis. Since October, the patient received 8 tablets combined with theanyl-theanine in example 5 (0.8 g theanyl-theanine) daily for 30 days.

CN1C(=O)CN=C(c2ccccc2)c2cc(Cl)ccc21 [diazepam]
effect of earlier drug therapy on tic symptoms (history) (tic disorders [1]; patient): no effect

CCNC(=O)CC[C@H](N)C(=O)O [theanine, L-theanine]
adverse effects (tic disorders [1]; in vivo): no adverse effects
adverse effects (Tourette's disorder; in vivo): no adverse effects
death or abnormality in general conditions and body weight (mice): neither death nor abnormality in general conditions and body weight was observed

CCNC(=O)CC[C@H](NC(=O)[C@@H](N)CCC(=O)NCC)C(=O)O [theanyl-theanine] (H-Glu(NHEt)-Glu(NHEt)-OH)
adverse effects (tic disorders [2]): no adverse effects

O=C(CCCN1CCC(O)(c2ccc(Cl)cc2)CC1)c1ccc(F)cc1 [haloperidol]
adverse effects of earlier drug therapy (history) (tic disorders [1]; patient, increased dosage, patient history): speech defect
effect of earlier drug therapy on tic symptoms (history) (tic disorders [1]; patient): insufficient effect
adverse effects of earlier drug therapy (Tourette's disorder; patient, 0.25 mg to 0.5 mg): drowsiness was caused as an adverse effect
symptoms of Tourette's disorder under earlier drug therapy (Tourette's disorder; patient, dosage gradually increased from 0.25 mg to 0.5 mg): alleviated the symptoms such as tics and restlessness
